logP and Efficacy data for 13 molecules are collected here from patent publication US9617286B2, “Fungicide N-[(trisubstitutedsilyl)methyl]-carboxamide derivatives” (BAYER INTELLECTUAL PROPERTY GMBH, priority 2011, dated 2017).

The nature of data set [1]: log P by HPLC on reversed-phase column (C 18), EEC Directive 79/831 Annex V.A8. The conditions noted are these: 40° C., 0.1% aqueous formic acid and acetonitrile, linear gradient 10% to 90% acetonitrile. The class given is physicochemical. In outline:
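Reversed-phase C18 HPLC at 40° C, 0.1% aqueous formic acid/acetonitrile gradient from 10% to 90% acetonitrile. log P derived from retention times by linear interpolation between unbranched alkan-2-ones (3–16 carbons) of known log P.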

Data set [2] concerns Sphaerotheca fuliginea. Briefly: In vivo preventive test on Sphaerotheca fuliginea (powdery mildew on cucurbits). The following applies: gherkin plants, preventive spray, 500 ppm of active ingredient, grading 12 days after contamination. As for the experimental part:
Gherkin plants (“Vert petit de Paris” variety), sown in starter cups on a 50/50 peat soil-pozzolana substrate and grown at 24° C., are treated at the Z11 cotyledon stage by spraying with the active ingredient prepared as described above. Plants, used as controls, are treated with the mixture of acetone/tween/DMSO/water not containing the active material. After 24 hours, the plants are contaminated by spraying the cotyledons with an aqueous suspension of Sphaerotheca fuliginea spores (100 000 spores per mL). The spores are collected from infected plants. The contaminated gherkin plants are incubated at about 20° C. and at 70-80% relative humidity. Grading (% of efficacy) is carried out 12 days after the contamination, in comparison with the control plants.

Data set [3] concerns Puccinia recondita. Briefly: In vivo preventive test on Puccinia recondita (brown rust on wheat). The following applies: preventive spray, 500 ppm of active ingredient, grading 12 days after contamination. As for the experimental part: Wheat plants (“Scipion” variety), sown in starter cups on a 50/50 peat soil pozzolana substrate and grown at 22° C., are treated at the 1 leaf stage (10 cm height) by spraying with the active ingredient prepared as described above. Plants, used as controls, are treated with the mixture of acetone/tween/DMSO/water not containing the active material. After 24 hours, the plants are contaminated by spraying the leaves with an aqueous suspension of Puccinia recondita spores (100 000 spores per mL). The spores are collected from an infected plant and are suspended in water containing 2.5 mL/L of Tween 80 at 10%. The contaminated wheat plants are incubated for 24 hours at 20° C. and at 100% relative humidity, and then for 10 days at 20° C. and at 70-80% relative humidity. Grading (% of efficacy) is carried out 12 days after the contamination, in comparison with the control plants.

Data set [4] concerns Septoria tritici. Briefly: In vivo preventive test on Septoria tritici (wheat). The following applies: preventive spray, 500 ppm of active ingredient, grading 24 days after contamination. The method, then:
Wheat plants (“Scipion” variety), sown in starter cups on a 50/50 peat soil pozzolana substrate and grown at 22° C., are treated at the 1 leaf stage (10 cm height) by spraying with the active ingredient prepared as described above. Plants, used as controls, are treated with the mixture of acetone/tween/DMSO/water not containing the active material. After 24 hours, the plants are contaminated by spraying the leaves with an aqueous suspension of cryopreserved Septoria tritici spores (500 000 spores per mL). The contaminated wheat plants are incubated for 72 hours at 18° C. and at 100% relative humidity, and then for 21 days at 90% relative humidity. Grading (% of efficacy) is carried out 24 days after the contamination, in comparison with the control plants.

Data set [5] deals with Uromyces appendiculatus. Briefly: In vivo preventive test on Uromyces appendiculatus (bean rust). The following applies: bean plants, preventive spray, 500 ppm of active ingredient, grading 11 days after contamination. As for the experimental part:
Bean plants (“Saxa” variety), sown in starter cups on a 50/50 peat soil pozzolana substrate and grown at 24° C., are treated at the 2 leaf stage (9 cm height) by spraying with the active ingredient prepared as described above. Plants, used as controls, are treated with the mixture of acetone/tween/DMSO/water not containing the active material. After 24 hours, the plants are contaminated by spraying the leaves with an aqueous suspension of Uromyces appendiculatus spores (150 000 spores per mL). The spores are collected from infected plants and are suspended in water containing 2.5 mL/L of Tween 80 at 10%. The contaminated bean plants are incubated for 24 hours at 20° C. and at 100% relative humidity, and then for 10 days at 20° C. and at 70-80% relative humidity. Grading (% of efficacy) is carried out 11 days after the contamination, in comparison with the control plants.

Data set [6] relates to Pyrenophora teres. Briefly: In vivo preventive test on Pyrenophora teres (barley). The conditions noted are these: preventive spray (DMF/alkylaryl polyglycol ether), 500 ppm of active ingredient, evaluated 7-9 days after inoculation. As for the experimental part:
(§1) Solvent: 49 parts by weight of N,N-dimethylformamide Emulsifier: 1 part by weight of alkylaryl polyglycol ether To produce a suitable preparation of active compound, 1 part by weight of active compound is mixed with the stated amounts of solvent and emulsifier, and the concentrate is diluted with water to the desired concentration. To test for preventive activity, young plants are sprayed with the preparation of active compound at the stated rate of application. One day after this treatment, the plants are inoculated with an aqueous spore suspension of Pyrenophora teres. The plants remain for 48 hours in an incubation cabinet at 22° C. and a relative atmospheric humidity of 100%. Then the plants are placed in a greenhouse at a temperature of approximately 20° C. and a relative atmospheric humidity of approximately 80%.

Data set [7] relates to Alternaria brassicae. Briefly: In vivo preventive test on Alternaria brassicae (leaf spot on radish). The conditions noted are these: preventive spray, 500 ppm of active ingredient, grading 6 days after contamination. The method, then: Radish plants (“Pernod Clair” variety), sown in starter cups on a 50/50 peat soil pozzolana substrate and grown at 17° C., are treated at the cotyledon stage by spraying with the active ingredient prepared as described above. Plants, used as controls, are treated with the mixture of acetone/tween/DMSO/water not containing the active material. After 24 hours, the plants are contaminated by spraying the cotyledons with an aqueous suspension of Alternaria brassicae spores (50 000 spores per mL). The spores are collected from a 15-day-old culture. The contaminated radish plants are incubated at 20° C. and at 100% relative humidity. Grading (% of efficacy) is carried out 6 days after the contamination, in comparison with the control plants.

Data set [8] concerns Botrytis cinerea. Briefly: In vivo preventive test on Botrytis cinerea (cucumber). The conditions noted are these: preventive spray (DMF/alkylaryl polyglycol ether), 500 ppm of active ingredient, evaluated 5-6 days after inoculation. The method, then: (§2) Solvent: 49 parts by weight of N,N-dimethylformamide Emulsifier: 1 part by weight of alkylaryl polyglycol ether To produce a suitable preparation of active compound, 1 part by weight of active compound is mixed with the stated amounts of solvent and emulsifier, and the concentrate is diluted with water to the desired concentration. To test for preventive activity, young plants are sprayed with the preparation of active compound at the stated rate of application. One day after this treatment, the plants are inoculated with an aqueous spore suspension of Botrytis cinerea. The plants remain for two days in an incubation cabinet at approximately 22° C. and a relative atmospheric humidity of 100%. Then the plants are placed in an incubation cabinet at approximately 14° C. and a relative atmospheric humidity of 96%.

Data set [9] deals with Leptosphaeria nodorum. Briefly: In vivo preventive test on Leptosphaeria nodorum (wheat). The conditions noted are these: preventive spray, 500 ppm of active ingredient, evaluated 7-9 days after inoculation. The method, then: as §1, with “sprayed with a preparation of” for “sprayed with the preparation of”, “suspension of Leptosphaeria nodorum. The plants” for “suspension of Pyrenophora teres. The plants”, “of approximately 22° C. and” for “of approximately 20° C. and”, “of approximately 90%.” for “of approximately 80%.”

Data set [10] deals with Alternaria solani. Briefly: In vivo preventive test on Alternaria solani (tomato). The conditions noted are these: preventive spray, 500 ppm of active ingredient, evaluated 7 days after inoculation. As for the experimental part: as §2, with “Alternaria solani.” for “Botrytis cinerea.”, “one day” for “two days”, “20°” for “14°”
Data set [11] concerns Pyrenophora teres. Briefly: In vivo preventive test on Pyrenophora teres (barley) - 2nd test. The following applies: 2nd test (acetone/tween/DMSO), 500 ppm of active ingredient, grading 14 days after contamination. The method, then:
Barley plants (“Plaisant” variety), sown in starter cups on a 50/50 peat soil pozzolana substrate and grown at 22° C., are treated at the 1 leaf stage (10 cm height) by spraying with the active ingredient prepared as described above. Plants, used as controls, are treated with the mixture of acetone/tween/DMSO/water not containing the active material. After 24 hours, the plants are contaminated by spraying the leaves with an aqueous suspension of Pyrenophora teres spores (12 000 spores per mL). The spores are collected from a 12-day-old culture. The contaminated barley plants are incubated for 48 hours at 20° C. and at 100% relative humidity, and then for 12 days at 20° C. at 70-80% relative humidity. Grading (% of efficacy) is carried out 14 days after the contamination, in comparison with the control plants.

The structures appear in SMILES notation.

One may read the logP as the decadic logarithm of the partition coefficient of the neutral form, usually between octanol and water. Read a high logP as a more lipophilic compound. Regarding `C[Si](C)(CNC(=O)c1cccnc1C(F)(F)F)c1ccccc1` [Example 2], the logP in [1] is on record as 2.92. The Efficacy in data set [2] is listed as 83%; in [3] it was 88%; in data set [4] it was 100%; in data set [5], 100%.

`C[Si](C)(CN(C(=O)c1nccnc1C(F)(F)F)C1CC1)c1ccccc1F` [Example 14]: in data set [1], the logP worked out at 4.18. Moreover, the Efficacy in [2] is 98%; in data set [6] it was 100%; in data set [3] it was 98%; in data set [4], 93%; in [7], 95%; in data set [5], 84%.

As to `C[Si](C)(CN(C(=O)c1nccnc1C(F)(F)F)C1CC1)c1ccccc1Cl` [Example 26], in data set [1], the logP is given as 4.56. Also, the Efficacy in [2] was determined as 93%; in [6], 95%; in data set [3], 92%; in data set [4] it was 100%; in data set [8] it was 99%; in data set [9] it was 80%.

In data set [1], `C[Si](C)(CN(C(=O)c1nccnc1C(F)(F)F)C1CC1)c1cccc(Cl)c1` [Example 32] returned a log partition coefficient (logP) of 4.56. Also, the Efficacy in data set [6] is 95%; in [10] it was 89%; in data set [8], 94%; in data set [9] it was 90%.

Consider `C[Si](C)(CN(C(=O)c1cccnc1C(F)F)C1CC1)c1cccc(Cl)c1` [Example 34], for which, in [1], the logP was determined as 3.87. The Efficacy in data set [6] turned out to be 100%; in data set [10], 89%; in data set [8], 85%; in [9], 80%.

Take `CC1=C(C(=O)NC[Si](C)(C)c2ccccc2Cl)SCCO1` [Example 42]: in [1], the log partition coefficient (logP) is 3.50. In addition, the Efficacy in data set [3] was determined as 72%; in [4] it was 100%; in [11], 93%.

As to `C[Si](C)(CN(C(=O)c1cccnc1C(F)F)C1CC1)c1cccc2ccccc12` [Example 74], in data set [1], the logP came to 4.04. Also, the results for the Efficacy in [6], in data set [10] and in data set [9] were 95%, 78% and 70%, respectively.

Consider `C[Si](C)(CN(C(=O)c1nccnc1C(F)(F)F)C1CC1)c1ccc2ccccc2c1` [Example 77], for which, in data set [1], the logP is on record as 4.80. The Efficacy in data set [6] turned out to be 100%; in data set [10], 78%; in [8], 95%; in data set [9] it was 95%.

Turning to `C[Si](C)(CN(C(=O)c1cccnc1C(F)F)C1CC1)c1ccc2ccccc2c1` [Example 79], the logP in data set [1] is reported as 4.11. Besides, the Efficacy is on record as 95% in data set [6], 89% in data set [10], 70% in [8] and 90% in data set [9].

Regarding `C[Si](C)(CN(C(=O)c1nccnc1C(F)(F)F)C1CC1)c1ccsc1` [Example 86], in [1], the logP came out at 3.94. Moreover, the Efficacy was determined as 90% in data set [6], 75% in data set [10] and 80% in [8].

`C[Si](C)(Cc1ccccc1)CN(C(=O)c1cccnc1C(F)F)C1CC1` [Example 92]: in data set [1], the logP is on record as 3.80. Also, the Efficacy is reported as 90% in data set [6], 78% in data set [10], 98% in data set [8] and 80% in data set [9].

For the molecule `C[Si](C)(Cc1ccccc1)CN(C(=O)c1nccnc1C(F)(F)F)C1CC1` [Example 93], the logP in data set [1] is listed as 4.44. Further, the Efficacy in data set [6] stood at 70%; in [10] it was 75%; in data set [8], 100%; in data set [9], 80%.

In turn, `C[Si](C)(Cc1cccc(Cl)c1)CN(C(=O)c1nccnc1C(F)(F)F)C1CC1` [Example 105] registered a log partition coefficient (logP) in [1] of 4.82. The Efficacy in data set [6] stood at 70%; in [8], 93%.
